How the values were obtained:
[1] = Highest frequency of moderate liver toxicity observed during clinical trials, expressed as a percentage. [column '% BIOL' in source]; conditions: human
[2] = Highest frequency of acute liver toxicity observed during clinical trials, expressed as a percentage. [column '% AIGUE' in source]; conditions: human
[3] = Times to onset, minimal and maximal, observed in the indexed observations. [column 'DELAI' in source]; conditions: human
[4] = human, serum
[5] = human, serum; remark: listed apart in the source
[6] = human
[7] = human; remark: listed apart in the source
[8] = human; remark: listed apart in the source
[9] = human, serum, 4383 h
[10] = human; remark: listed apart in the source
[11] = human; remark: listed apart in the source
[12] = human; remark: listed apart in the source
[13] = human; remark: listed apart in the source
[14] = human; remark: listed apart in the source
[15] = human; remark: listed apart in the source
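For Hepatotoxicity (association with vascular disease) in this document: count of indexed literature references reporting vascular liver injury in humans, e.g. peliosis hepatitis, hepatic veno-occlusive disease or Budd-Chiari syndrome.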
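For Hepatotoxicity (benign tumour) in this document: value is a count of indexed literature references citing a benign tumour confirmed by histopathology.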
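For Hepatotoxicity (choleostasis) in this document: human cholestatic liver injury, shown by histopathology or by peak ALT or AST elevation over alkaline phosphatase ratio below 2, value counts indexed literature reports.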
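For Hepatotoxicity (chronic liver disease) in this document: chronic liver injury confirmed by histopathology or persistently raised serum aminotransferase activity beyond 6 months, value given as the count of indexed literature references.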
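For Hepatotoxicity (cirrhosis) in this document: value is a count of indexed literature references reporting cirrhosis confirmed by histopathology.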
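For Hepatotoxicity (cytolytic) in this document: human cytolytic liver injury, shown by histopathology or by a ratio above 5 of peak ALT or AST elevation to alkaline phosphatase elevation, value counts indexed references.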
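For Hepatotoxicity (granulomatous hepatitis) in this document: value is a count of indexed literature references reporting granulomatous liver disease confirmed by histopathology.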
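For Hepatotoxicity (malignant tumour) in this document: malignant tumour confirmed by histopathology, value gives the count of indexed literature references reporting it.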
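For Hepatotoxicity (severe hepatitis) in this document: human clinical data: severe hepatitis, meaning potentially life-threatening liver failure or clinically observed cases, the value counts how many indexed literature references report it.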
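For Hepatotoxicity (steatosis) in this document: steatosis confirmed by histopathology, value is the count of indexed references.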

Compound | Hepatotoxicity (moderate) [1] | Hepatotoxicity (acute) [2] | Hepatotoxicity (time to onset) [3] | Hepatotoxicity (moderate) [4] | Hepatotoxicity (acute) [5] | Hepatotoxicity (cytolytic) [6] | Hepatotoxicity (choleostasis) [7] | Hepatotoxicity (severe hepatitis) [8] | Hepatotoxicity (chronic liver disease) [9] | Hepatotoxicity (cirrhosis) [10] | Hepatotoxicity (granulomatous hepatitis) [11] | Hepatotoxicity (association with vascular disease) [12] | Hepatotoxicity (steatosis) [13] | Hepatotoxicity (malignant tumour) [14] | Hepatotoxicity (benign tumour) [15] | further results
CCOC(=O)C(C)(CC)Oc1ccc(Cc2ccc(Cl)cc2)cc1 (stereo not given) [BECLOBRATE] | 1% | 0% | 4 months - 6.5 months | 1 | 2 | 1 | 0 | 2 | 0 | 0 | 0 | 0 | 0 | 0 | 0 | 
CC(=O)CCCCn1c(=O)c2c(ncn2C)n(C)c1=O [PENTOXIFYLLINE] | 0% | 0% | 3 weeks | 0 | 2 | 0 | 2 | 0 | 0 | 0 | 0 | 0 | 0 | 0 | 0 | 
COc1c(C)c2c(c(O)c1C/C=C(\C)CCC(=O)OCCN1CCOCC1)C(=O)OC2 [MYCOPHENOLATE MOFETIL] | 33.3% | 0% | 2 weeks | 3 | 1 | 1 | 0 | 0 | 0 | 0 | 0 | 0 | 0 | 0 | 0 | 
C=CCNc1nc(NCC=C)nc(N2CCN(C(c3ccc(F)cc3)c3ccc(F)cc3)CC2)n1 [ALMITRINE] | 0% | 0% | 1 week | 0 | 1 | 1 | 0 | 0 | 0 | 0 | 0 | 0 | 0 | 0 | 0 | 
CC(=O)O[C@H]1C(=O)[C@@]2(C)[C@H]([C@H](OC(=O)c3ccccc3)[C@]3(O)C[C@H](OC(=O)[C@H](O)[C@@H](NC(=O)c4ccccc4)c4ccccc4)C(C)=C1C3(C)C)[C@]1(OC(C)=O)CO[C@@H]1C[C@@H]2O [PACLITAXEL] |  |  | 1 days | 7 | 5 |  |  |  | 0 | 0 |  | 0 | 0 | 0 | 0 | Hepatotoxicity (moderate) ([1]; Liver): 50%; Hepatotoxicity (acute) ([2]; Liver): 6%; Hepatotoxicity (cytolytic) ([6]; Liver): 3; Hepatotoxicity (choleostasis) ([7]; Liver): 0; Hepatotoxicity (severe hepatitis) ([8]; Liver): 0; Hepatotoxicity (granulomatous hepatitis) ([11]; Liver): 0
CCN(CC)CCOC(=O)[C@@H](Cc1cccc2ccccc12)C[C@@H]1CCCO1 [NAFTIDROFURYL] | 0% | 0% | 7 weeks - 4.3 months | 0 | 3 | 2 | 2 | 0 | 0 | 0 | 1 | 0 | 0 | 0 | 0 | 
Cc1cc(O)c(C(=O)N[C@@H](C(=O)N[C@@H]2C(=O)N3C(C(=O)O)=C(CSc4nnnn4C)CS[C@H]23)c2ccc(O)cc2)cn1 [CEFPIRAMIDE] | 10% | 0% | 1 month | 5 | 1 | 1 | 0 | 0 | 0 | 0 | 0 | 0 | 0 | 0 | 0 | 
CC[C@@H](CO)NC(=O)[C@@H]1C=C2c3cccc4[nH]cc(c34)C[C@H]2N(C)C1 [METHYLERGONOVINE] | 0% | 0% | 0.12 days | 1 | 0 | 0 | 0 | 0 | 0 | 0 | 0 | 0 | 0 | 0 | 0 | 
DALTEPARIN SODIUM | 2.6% | 0% | 4 days | 3 | 0 | 0 | 0 | 0 | 0 | 0 | 0 | 0 | 0 | 0 | 0 | 
N[C@@H](C(=O)N[C@@H]1C(=O)N2C(C(=O)O)=C(Cl)CS[C@H]12)c1ccccc1 [CEFACLOR ANHYDROUS] | 10.7% | 2.2% | 8 days | 20 | 2 | 1 | 2 | 0 | 0 | 0 | 0 | 0 | 0 | 0 | 0 | 
CCOC(=O)[C@H](CCc1ccccc1)N[C@H]1CCc2ccccc2N(CC(=O)O)C1=O [BENAZEPRIL] | 0% | 0% | 14 months | 0 | 2 | 1 | 0 | 1 | 0 | 0 | 0 | 0 | 0 | 0 | 0 | 
S=P(N1CC1)(N1CC1)N1CC1 [THIOTEPA] | 0% | 5.3% | 2 weeks | 0 | 1 | 1 | 1 | 2 | 0 | 0 | 0 | 2 | 0 | 0 | 0 | 
IVERMECTIN | 23.3% | 0% | 2 days - 1 week | 5 | 0 | 0 | 0 | 0 | 0 | 0 | 0 | 0 | 0 | 0 | 0 | 
C[C@]12CCC(=O)C=C1CC[C@@H]1[C@@H]2[C@@H](O)C[C@@]2(C)[C@H]1CC[C@]2(O)C(=O)CO [HYDROCORTISONE] | 25% | 0% | 2 months | 1 | 0 | 0 | 0 | 1 | 0 | 0 | 0 | 0 | 10 | 0 | 0 | 

Reference: ChEMBL document CHEMBL3137667, “[Drug-induced liver injury; fourteenth updated edition of the bibliographic database of liver injuries and related drugs]” (Gastroenterol Clin Biol, 2004)
